Measurements from ChEMBL document CHEMBL1148552, “Pulvinones as bacterial cell wall biosynthesis inhibitors” (Bioorg Med Chem Lett, 2006).
Converted amounts (≈) assume the structure as drawn.

Key:
[1] = molecular target: T1, UDP-N-acetylglucosamine 1-carboxyvinyltransferase 1 (Staphylococcus aureus subsp. aureus N315, UniProt P84058); assay: Inhibitory activity against MurA in Staphylococcus aureus
T1 sequence (P84058 whole entry): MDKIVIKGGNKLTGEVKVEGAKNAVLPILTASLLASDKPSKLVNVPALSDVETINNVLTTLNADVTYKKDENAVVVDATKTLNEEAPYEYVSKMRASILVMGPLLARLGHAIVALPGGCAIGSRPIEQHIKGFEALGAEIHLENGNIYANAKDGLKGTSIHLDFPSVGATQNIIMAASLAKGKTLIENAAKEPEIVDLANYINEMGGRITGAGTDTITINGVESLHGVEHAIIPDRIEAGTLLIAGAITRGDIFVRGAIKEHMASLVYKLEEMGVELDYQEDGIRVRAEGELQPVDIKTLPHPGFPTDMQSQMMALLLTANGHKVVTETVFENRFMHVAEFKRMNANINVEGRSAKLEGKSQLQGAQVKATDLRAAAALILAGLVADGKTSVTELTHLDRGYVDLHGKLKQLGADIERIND

Enterococcus faecalis [2] = assay: Antibacterial activity against vancomycin resistant Enterococcus faecalis; assay type: functional; details: GC 2242
Streptococcus pneumoniae = assay: Antibacterial activity against penicillin resistant Streptococcus pneumoniae; assay type: functional; details: GC 1894
Staphylococcus aureus [3] = assay: Antibacterial activity against Staphylococcus aureus; assay type: functional; details: GC 4543
[4] = molecular target: T2, UDP-N-acetylmuramoylalanine--D-glutamate ligase (Staphylococcus aureus, UniProt P0A091); assay: Inhibitory activity against MurD in Staphylococcus aureus
T2 sequence (P0A091 whole entry): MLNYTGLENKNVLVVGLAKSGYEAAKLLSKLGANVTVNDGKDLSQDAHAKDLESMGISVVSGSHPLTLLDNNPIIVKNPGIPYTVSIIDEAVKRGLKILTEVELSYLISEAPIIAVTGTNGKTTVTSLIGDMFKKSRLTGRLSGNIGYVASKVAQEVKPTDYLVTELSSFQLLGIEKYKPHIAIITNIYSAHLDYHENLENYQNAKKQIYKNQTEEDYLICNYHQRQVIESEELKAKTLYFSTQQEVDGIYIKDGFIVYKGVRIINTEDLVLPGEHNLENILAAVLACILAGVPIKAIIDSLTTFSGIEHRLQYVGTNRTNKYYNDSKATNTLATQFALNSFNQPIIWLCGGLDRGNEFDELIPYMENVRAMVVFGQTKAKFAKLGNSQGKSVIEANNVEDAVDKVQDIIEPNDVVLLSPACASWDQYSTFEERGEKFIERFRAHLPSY

[5] = molecular target: T3, UDP-N-acetylmuramate--L-alanine ligase (Staphylococcus aureus, UniProt O31211); assay: Inhibitory activity against MurC in Staphylococcus aureus
T3 sequence (O31211 whole entry): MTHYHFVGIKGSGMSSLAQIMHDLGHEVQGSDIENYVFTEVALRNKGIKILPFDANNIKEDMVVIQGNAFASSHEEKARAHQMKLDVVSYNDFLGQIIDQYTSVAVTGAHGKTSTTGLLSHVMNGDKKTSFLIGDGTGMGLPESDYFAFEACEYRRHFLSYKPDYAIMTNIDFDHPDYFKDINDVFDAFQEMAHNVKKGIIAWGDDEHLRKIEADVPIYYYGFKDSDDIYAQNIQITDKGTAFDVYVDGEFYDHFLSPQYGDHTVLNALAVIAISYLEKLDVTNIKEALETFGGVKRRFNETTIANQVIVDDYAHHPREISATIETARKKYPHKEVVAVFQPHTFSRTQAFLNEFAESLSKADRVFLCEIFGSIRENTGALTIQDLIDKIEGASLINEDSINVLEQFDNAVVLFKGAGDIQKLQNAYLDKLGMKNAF

Staphylococcus aureus [6] = assay: Antibacterial activity against methicillin resistant Staphylococcus aureus; assay type: functional; details: GC 1131
[7] = molecular target: T4, UDP-N-acetylenolpyruvoylglucosamine reductase (Escherichia coli K-12, UniProt P08373); assay: Inhibitory activity against MurB in Escherichia coli
T4 sequence (P08373 whole entry): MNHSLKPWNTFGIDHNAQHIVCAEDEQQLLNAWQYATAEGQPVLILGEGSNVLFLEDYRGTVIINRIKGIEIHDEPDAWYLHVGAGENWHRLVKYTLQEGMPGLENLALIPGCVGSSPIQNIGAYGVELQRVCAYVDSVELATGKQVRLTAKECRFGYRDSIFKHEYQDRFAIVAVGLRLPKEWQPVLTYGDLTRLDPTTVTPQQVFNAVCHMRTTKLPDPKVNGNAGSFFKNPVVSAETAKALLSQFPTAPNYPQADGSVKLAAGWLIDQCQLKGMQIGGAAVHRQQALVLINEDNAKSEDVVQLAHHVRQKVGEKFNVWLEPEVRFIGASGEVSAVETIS

Enterococcus faecalis [8] = assay: Antibacterial activity against Enterococcus faecalis; assay type: functional; details: GC 4555
[9] = molecular target: UDP-N-acetylglucosamine 1-carboxyvinyltransferase (Escherichia coli K-12, UniProt P0A749); assay: Inhibitory activity against MurA in Escherichia coli
UDP-N-acetylglucosamine 1-carboxyvinyltransferase, sequence (P0A749 whole entry): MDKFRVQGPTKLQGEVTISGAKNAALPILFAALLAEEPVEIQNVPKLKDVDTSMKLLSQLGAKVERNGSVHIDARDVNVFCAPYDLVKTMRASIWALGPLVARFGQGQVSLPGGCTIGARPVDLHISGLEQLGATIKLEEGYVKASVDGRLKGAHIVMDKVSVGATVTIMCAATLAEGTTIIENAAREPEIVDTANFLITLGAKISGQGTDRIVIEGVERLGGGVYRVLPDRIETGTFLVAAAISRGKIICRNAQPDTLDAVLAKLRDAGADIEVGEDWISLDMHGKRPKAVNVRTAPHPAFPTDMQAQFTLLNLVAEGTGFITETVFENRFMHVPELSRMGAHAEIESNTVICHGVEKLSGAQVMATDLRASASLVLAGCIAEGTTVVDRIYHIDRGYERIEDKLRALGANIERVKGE

## Cc1cc(/C=C2\OC(O)=C(c3cc(Cl)cc(Cl)c3)C2=O)ccc1-c1ccccc1C(F)(F)F
[1]
  IC50: 4.07 µM
Enterococcus faecalis [2]
  MIC: 1 µg/mL (≈ 2.04 µM)
Streptococcus pneumoniae
  MIC: 0.5 µg/mL (≈ 1.02 µM)
Staphylococcus aureus [3]
  MIC: 0.5 µg/mL (≈ 1.02 µM)
[4]
  IC50: 48.9 µM
[5]
  IC50: > 50.9 µM
Staphylococcus aureus [6]
  MIC: 0.5 µg/mL (≈ 1.02 µM)
[7]
  IC50: 6.11 µM
Enterococcus faecalis [8]
  MIC: 2 µg/mL (≈ 4.07 µM)

## O=C1O/C(=C\c2cc(C(F)(F)F)ccc2Cl)C(O)=C1c1ccc(N2CCOCC2)c(F)c1
Enterococcus faecalis [2]
  MIC: 128 µg/mL (≈ 272 µM)
Streptococcus pneumoniae
  MIC: 16 µg/mL (≈ 34.1 µM)
Staphylococcus aureus [3]
  MIC: 128 µg/mL (≈ 272 µM)
[9]
  IC50: > 53.2 µM
[4]
  IC50: > 53.2 µM
[5]
  IC50: > 53.2 µM
Staphylococcus aureus [6]
  MIC: 64 µg/mL (≈ 136 µM)
[7]
  IC50: 21.3 µM
Enterococcus faecalis [8]
  MIC: 128 µg/mL (≈ 272 µM)
